Reference: US9169254B2, “Spiroimidazolone derivative” (Chugai Seiyaku Kabushiki Kaisha, priority 2009, dated 2015)

What follows are compounds tested against T1, human PTH1 receptor (Homo sapiens, UniProt Q03431) (assay: In vitro cAMP signal activity in HKRK-B7 cells (LLC-PK1 cells overexpressing the human PTH1 receptor)). Details: HKRK-B7 cells; compound at 1×10^−3 M; cAMP produced as percentage of that produced by hPTH(1-34) at 100 nM.
T1 sequence (Q03431 27-593): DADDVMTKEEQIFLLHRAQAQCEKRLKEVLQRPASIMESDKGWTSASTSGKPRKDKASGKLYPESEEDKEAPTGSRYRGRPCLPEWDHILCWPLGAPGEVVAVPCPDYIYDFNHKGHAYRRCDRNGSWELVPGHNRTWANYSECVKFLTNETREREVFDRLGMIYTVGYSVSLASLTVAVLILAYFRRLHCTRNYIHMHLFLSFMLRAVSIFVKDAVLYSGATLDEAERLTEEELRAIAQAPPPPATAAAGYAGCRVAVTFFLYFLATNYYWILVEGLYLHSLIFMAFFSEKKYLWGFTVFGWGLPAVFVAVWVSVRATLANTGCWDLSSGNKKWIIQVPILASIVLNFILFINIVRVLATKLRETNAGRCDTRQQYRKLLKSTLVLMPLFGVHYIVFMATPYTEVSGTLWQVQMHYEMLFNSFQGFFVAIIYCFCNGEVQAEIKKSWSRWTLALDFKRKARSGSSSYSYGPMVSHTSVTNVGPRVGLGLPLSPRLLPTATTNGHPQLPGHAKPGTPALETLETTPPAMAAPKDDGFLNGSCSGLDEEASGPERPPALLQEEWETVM
Format: cell-based

| cAMP production activity (%) | SMILES |
| --- | --- |
| 6.1% | Cc1cc2c(ccn2C[C@@H](O)CO)c(C)c1CCS(=O)(=O)N1CCC2(CC1)N=C(C1CCC(CCC(F)(F)F)CC1)NC2=O (stereo partly drawn) [Compound 791, 8-{2-[1-((R)-2,3-dihydroxy-propyl)-4,6-dimethyl-1H-indol-5-yl]-ethanesulfonyl}-2-[4-(3,3,3-trifluoro-propyl)-cyclohexyl]-1,3,8-triaza-spiro[4.5]dec-1-en-4-one] |
| 28% | O=C1NC(C2CCCCC2)=NC12CCN(S(=O)(=O)CC/C=C/c1cccc3[nH]ccc13)CC2 [Compound 251, 2-Cyclohexyl-8-[(E)-4-(1H-indol-4-yl)-but-3-ene-1-sulfonyl]-1,3,8-triaza-spiro[4.5]dec-1-en-4-one] |
| 65% | Cc1cc(NS(=O)(=O)NCCCO)ccc1CCS(=O)(=O)N1CCC2(CC1)N=C(c1cccc(OC(F)(F)F)c1)NC2=O [Compound 875, N-(3-hydroxy-propyl)-N′-(3-methyl-4-{2-[4-oxo-2-(3-trifluoromethoxy-phenyl)-1,3,8-triaza-spiro[4.5]dec-1-ene-8-sulfonyl]-ethyl}-phenyl)-sulfamide] |
| 49% | Cc1cc(OCCCN(C)C)ccc1/C=C/S(=O)(=O)N1CCC2(CC1)N=C(c1cccc(OC(F)(F)F)c1)NC2=O [Compound 235, 8-{(E)-2-[4-(3-dimethylamino-propoxy)-2-methyl-phenyl]-ethenesulfonyl}-2-(3-trifluoromethoxy-phenyl)-1,3,8-triaza-spiro[4.5]dec-1-en-4-one] |
| 62% | Cc1cc(OCCOC[C@H](O)CO)cc(C)c1/C=C/S(=O)(=O)N1CCC2(CC1)N=C(C1CCC(CCC(F)(F)F)CC1)NC2=O (stereo partly drawn) [Compound 698, 8-((E)-2-{4-[2-((R)-2,3-dihydroxy-propoxy)-ethoxy]-2,6-dimethyl-phenyl}-ethenesulfonyl)-2-[4-(3,3,3-trifluoro-propyl)-cyclohexyl]-1,3,8-triaza-spiro[4.5]dec-1-en-4-one] |
| 120% | CCCCCCCCCC1=NC2(CCN(S(=O)(=O)CCc3c(C)cc(C(=O)N4CC(O)C4)cc3C)CC2)C(=O)N1 [Compound 985, 8-{2-[4-(3-hydroxy-azetidine-1-carbonyl)-2,6-dimethyl-phenyl]-ethanesulfonyl}-2-nonyl-1,3,8-triaza-spiro[4.5]dec-1-en-4-one] |
| 106% | Cc1cc(N(C)C(N)=O)cc(C)c1/C=C/[S@TB3](=O)(=O)N1CCC2(CC1)N=C(c1cccc(CCCCCC(F)(F)F)c1)NC2=O [Compound 1116, 1-[3,5-dimethyl-4-((E)-2-{4-oxo-2-[3-(6,6,6-trifluoro-hexyl)-phenyl]-1,3,8-triaza-spiro[4.5]dec-1-ene-8-sulfonyl}-vinyl)-phenyl]-1-methyl-urea] |
| 44% | Cc1cc(C(=O)N(C)C2CCN(C)CC2)cc(C)c1/C=C/S(=O)(=O)N1CCC2(CC1)N=C(c1cccc(C(F)(F)F)c1)NC2=O [Compound 393, 3,5,N-trimethyl-N-(1-methyl-piperidin-4-yl)-4-{(E)-2-[4-oxo-2-(3-trifluoromethyl-phenyl)-1,3,8-triaza-spiro[4.5]dec-1-ene-8-sulfonyl]-vinyl}-benzamide] |
| 95% | Cc1cc(OCCCN(C)C)ccc1CCS(=O)(=O)N1CCC2(CC1)N=C(c1cccc(OC(F)(F)F)c1)NC2=O [Compound 295, 8-{2-[4-(3-dimethylamino-propoxy)-2-methyl-phenyl]-ethanesulfonyl}-2-(3-trifluoromethoxy-phenyl)-1,3,8-triaza-spiro[4.5]dec-1-en-4-one] |
| 70% | Cc1cc(C(=O)N2CCC(O)(CF)CC2)cc(C)c1/C=C/S(=O)(=O)N1CCC2(CC1)N=C(c1ccc(OCC(F)(F)C(F)F)c(Cl)c1)NC2=O [Compound 1247, 2-[3-chloro-4-(2,2,3,3-tetrafluoro-propoxy)-phenyl]-8-{(E)-2-[4-(4-fluoromethyl-4-hydroxy-piperidine-1-carbonyl)-2,6-dimethyl-phenyl]-ethenesulfonyl}-1,3,8-triaza-spiro[4.5]dec-1-en-4-one] |
| 20% | Cc1cc(C(=O)N(C)C)ccc1CCS(=O)(=O)N1CCC2(CC1)N=C(NCC1CCCCC1)NC2=O [Compound 1399, 4-{2-[2-(cyclohexylmethyl-amino)-4-oxo-1,3,8-triaza-spiro[4.5]dec-1-ene-8-sulfonyl]-ethyl}-3,N,N-trimethyl-benzamide] |
| 66% | Cc1cc(C(=O)N2CCC(C)(O)CC2)cc(C)c1/C=C/S(=O)(=O)N1CCC2(CC1)N=C(c1ccc(COc3cccc(C(F)(F)F)c3)cc1)NC2=O [Compound 1191, 8-{(E)-2-[4-(4-hydroxy-4-methyl-piperidine-1-carbonyl)-2,6-dimethyl-phenyl]-ethenesulfonyl}-2-[4-(3-trifluoromethyl-phenoxymethyl)-phenyl]-1,3,8-triaza-spiro[4.5]dec-1-en-4-one] |
| 88% | Cc1cc(C(=O)N2CCN(C(=O)N(C)C)CC2)cc(C)c1/C=C/S(=O)(=O)N1CCC2(CC1)N=C(c1cccc(OC(F)(F)F)c1)NC2=O [Compound 395, 4-(3,5-dimethyl-4-{(E)-2-[4-oxo-2-(3-trifluoromethoxy-phenyl)-1,3,8-triaza-spiro[4.5]dec-1-ene-8-sulfonyl]-vinyl}-benzoyl)-piperazine-1-carboxylic acid dimethylamide] |
| 47% | CC(C)(C)OC(=O)NCc1ccc(/C=C/S(=O)(=O)N2CCC3(CC2)N=C(C2CCCCC2)NC3=O)c(C(F)(F)F)c1 [Compound 205, {4-[(E)-2-(2-cyclohexyl-4-oxo-1,3,8-triaza-spiro[4.5]dec-1-ene-8-sulfonyl)-vinyl]-3-trifluoromethyl-benzyl}-carbamic acid tert-butyl ester] |
| 15% | Cc1cc2cc(C)c1CCS(=O)(=O)N1CCC3(CC1)N=C(CCCC/C=C/CCCCC(=O)N2C)NC3=O [Compound 1447] |
| 104% | CC(C)=C1CCC(C2=NC3(CCN(S(=O)(=O)CCc4c(C)cc(N(C)C(N)=O)cc4C)CC3)C(=O)N2)CC1 (stereo not shown) [Compound 1310, 1-(4-{2-[2-(4-isopropylidene-cyclohexyl)-4-oxo-1,3,8-triaza-spiro[4.5]dec-1-ene-8-sulfonyl]-ethyl}-3,5-dimethyl-phenyl)-1-methyl-urea] |
| 80% | Cc1cc(C(=O)N(C)C)ccc1CCS(=O)(=O)N1CCC2(CC1)N=C(CC1CCCCC1)NC2=O [Compound 103, 4-[2-(2-cyclohexylmethyl-4-oxo-1,3,8-triaza-spiro[4.5]dec-1-ene-8-sulfonyl)-ethyl]-3,N,N-trimethyl-benzamide] |
| 112% | Cc1cc(C(=O)N2CCC(C)(O)CC2)cc(C)c1/C=C/S(=O)(=O)N1CCC2(CC1)N=C(c1ccc(OCCCC(F)(F)C(F)(F)F)c(F)c1)NC2=O [Compound 1207, 2-[3-fluoro-4-(4,4,5,5,5-pentafluoro-pentyloxy)-phenyl]-8-{(E)-2-[4-(4-hydroxy-4-methyl-piperidine-1-carbonyl)-2,6-dimethyl-phenyl]-ethenesulfonyl}-1,3,8-triaza-spiro[4.5]dec-1-en-4-one] |

| SMILES | cAMP production activity (%) |
| --- | --- |
| Cc1cc(OC[C@H](O)[C@@H](O)CO)cc(C)c1/C=C/S(=O)(=O)N1CCC2(CC1)N=C(C1CCC(CCC(F)(F)F)CC1)NC2=O (stereo partly drawn) [Compound 705, 8-{(E)-2-[2,6-dimethyl-4-((2S,3S)-2,3,4-trihydroxy-butoxy)-phenyl]-ethenesulfonyl}-2-[4-(3,3,3-trifluoro-propyl)-cyclohexyl]-1,3,8-triaza-spiro[4.5]dec-1-en-4-one] | 76% |
